From patent US20250255867A1 (Kadmon Corporation, LLC, priority 2022, published 2025)
Where a name gives a salt, the structure may show the parent alone.

Key:
[1] = Example 1: plasma pharmacokinetics (Cmax, Tmax, AUC0-6 hr) of belumosudil and metabolites; format: in vivo, human
Experimental: Cmax was the maximum observed plasma concentration, obtained by a non-compartmental analysis. […] Timeframe: Cycles 1 and 2: pre-dose (0 hour), 1, 2, 3, 4, 5, and 6 hours post-dose on Day 1. […] Here, ‘number analyzed’=participants with available data for each specified category.
Tmax was defined as time to reach maximum observed plasma concentration, obtained by a non-compartmental analysis. […] Timeframe: Cycles 1 and 2: pre-dose (0 hour), 1, 2, 3, 4, 5, and 6 hours post-dose on Day 1. Analysis was performed on PK population. Here, ‘number analyzed’=participants with available data for each specified category.
AUC0-6 hr was defined as area under the plasma concentration versus time curve from time 0 to 6 hours post-dose, obtained by a non-compartmental analysis from the concentration-time data. […] Timeframe: Cycles 1 and 2: pre-dose (0 hour), 1, 2, 3, 4, 5, and 6 hours post-dose on Day 1. Analysis was performed on PK population. Here, ‘number analyzed’=participants with available data for each specified category.

[2] = Solubility of belumosudil mesylate; format: physicochemical
[3] = Cohort 1: Belumosudil 200 mg QD, Cycle 1 Day 1
[4] = Cohort 1: Belumosudil 200 mg QD, Cycle 2 Day 1
[5] = Cohort 2: Belumosudil 200 mg BID, Cycle 1 Day 1
[6] = Cohort 2: Belumosudil 200 mg BID, Cycle 2 Day 1
[7] = Cohort 3: Belumosudil 400 mg QD, Cycle 1 Day 1
[8] = Cohort 3: Belumosudil 400 mg QD, Cycle 2 Day 1

Question: Which “Area Under the Plasma Concentration Versus Time Curve From Time 0 to 6 Hours Post-dose (AUC0-6 hr), Geometric Mean (Geometric Coefficient of Variation)” value [1, 3] does the source give for `O=C(O)COc1cccc(-c2nc(Nc3ccc4[nH]ncc4c3)c3ccccc3n2)c1` [KD025m2] here?
Answer: Its value is 565 (90.8%) hours*nanograms per milliliter.

Question: And the “Maximum Observed Plasma Concentration (Cmax), Geometric Mean (Geometric Coefficient of Variation)” value (“Maximum Observed Plasma Concentration” below) [1, 3]?
Answer: The value was 208 (93.1%) nanograms per milliliter.

Question: What about the “Area Under the Plasma Concentration Versus Time Curve From Time 0 to 6 Hours Post-dose (AUC0-6 hr), Geometric Mean (Geometric Coefficient of Variation)” value [1, 4] of the same molecule?
Answer: Its value is 471 (145%) hours*nanograms per milliliter.

Question: What about the “Maximum Observed Plasma Concentration” value [1, 4] of the same molecule?
Answer: The value was 158 (150%) nanograms per milliliter.

Question: And the “Area Under the Plasma Concentration Versus Time Curve From Time 0 to 6 Hours Post-dose (AUC0-6 hr), Geometric Mean (Geometric Coefficient of Variation)” value [1, 5]?
Answer: The value was 282 (125%) hours*nanograms per milliliter.

Question: And the “Maximum Observed Plasma Concentration” value [1, 5]?
Answer: The value was 99.2 (112%) nanograms per milliliter.

Question: And the “Area Under the Plasma Concentration Versus Time Curve From Time 0 to 6 Hours Post-dose (AUC0-6 hr), Geometric Mean (Geometric Coefficient of Variation)” value [1, 6]?
Answer: Its value is 513 (122%) hours*nanograms per milliliter.

Question: What about the “Maximum Observed Plasma Concentration” value [1, 6] of the same molecule?
Answer: The value was 145 (147%) nanograms per milliliter.

Question: And the “Area Under the Plasma Concentration Versus Time Curve From Time 0 to 6 Hours Post-dose (AUC0-6 hr), Geometric Mean (Geometric Coefficient of Variation)” value [1, 7]?
Answer: The value was 1150 (97.1%) hours*nanograms per milliliter.

Question: What about the “Maximum Observed Plasma Concentration” value [1, 7] of the same molecule?
Answer: Its value is 388 (82.3%) nanograms per milliliter.

Question: What about the “Area Under the Plasma Concentration Versus Time Curve From Time 0 to 6 Hours Post-dose (AUC0-6 hr), Geometric Mean (Geometric Coefficient of Variation)” value [1, 8] of the same molecule?
Answer: Its value is 923 (144%) hours*nanograms per milliliter.

Question: What about the “Maximum Observed Plasma Concentration” value [1, 8] of the same molecule?
Answer: The value was 265 (154%) nanograms per milliliter.

Question: Which “Area Under the Plasma Concentration Versus Time Curve From Time 0 to 6 Hours Post-dose (AUC0-6 hr), Geometric Mean (Geometric Coefficient of Variation)” value [1, 3] does the source give for `NC(=O)COc1cccc(-c2nc(Nc3ccc4[nH]ncc4c3)c3ccccc3n2)c1` [KD025m1] here?
Answer: Its value is 140 (72.3%) hours*nanograms per milliliter.

Question: And the “Maximum Observed Plasma Concentration” value [1, 3]?
Answer: The value was 44.4 (67.9%) nanograms per milliliter.

Question: And the “Area Under the Plasma Concentration Versus Time Curve From Time 0 to 6 Hours Post-dose (AUC0-6 hr), Geometric Mean (Geometric Coefficient of Variation)” value [1, 4]?
Answer: The value was 123 (38.2%) hours*nanograms per milliliter.

Question: And the “Maximum Observed Plasma Concentration” value [1, 4]?
Answer: Its value is 36.2 (43.0%) nanograms per milliliter.

Question: What about the “Area Under the Plasma Concentration Versus Time Curve From Time 0 to 6 Hours Post-dose (AUC0-6 hr), Geometric Mean (Geometric Coefficient of Variation)” value [1, 5] of the same molecule?
Answer: Its value is 114 (60.8%) hours*nanograms per milliliter.

Question: And the “Maximum Observed Plasma Concentration” value [1, 5]?
Answer: Its value is 34.8 (58.8%) nanograms per milliliter.

Question: And the “Area Under the Plasma Concentration Versus Time Curve From Time 0 to 6 Hours Post-dose (AUC0-6 hr), Geometric Mean (Geometric Coefficient of Variation)” value [1, 6]?
Answer: The value was 160 (31.3%) hours*nanograms per milliliter.

Question: What about the “Maximum Observed Plasma Concentration” value [1, 6] of the same molecule?
Answer: Its value is 45.0 (38.6%) nanograms per milliliter.

Question: And the “Area Under the Plasma Concentration Versus Time Curve From Time 0 to 6 Hours Post-dose (AUC0-6 hr), Geometric Mean (Geometric Coefficient of Variation)” value [1, 7]?
Answer: Its value is 216 (61.9%) hours*nanograms per milliliter.

Question: And the “Maximum Observed Plasma Concentration” value [1, 7]?
Answer: Its value is 63.9 (59.4%) nanograms per milliliter.

Question: What about the “Area Under the Plasma Concentration Versus Time Curve From Time 0 to 6 Hours Post-dose (AUC0-6 hr), Geometric Mean (Geometric Coefficient of Variation)” value [1, 8] of the same molecule?
Answer: Its value is 178 (72.9%) hours*nanograms per milliliter.

Question: And the “Maximum Observed Plasma Concentration” value [1, 8]?
Answer: Its value is 55.8 (82.1%) nanograms per milliliter.

Question: For `CC(C)NC(=O)COc1cccc(-c2nc(Nc3ccc4[nH]ncc4c3)c3ccccc3n2)c1` [Belumosudil mesylate, 2-{3-[4-(1H-indazol-5-ylamino)-2-quinazolinyl]phenoxy}-N-(propan-2-yl) acetamide methanesulfonate (1:1)], which “Solubility in DMF” value [2] is on record?
Answer: Its value is “slightly soluble”.

Question: What about the “Solubility in DMSO” value [2] of the same molecule?
Answer: Its value is “soluble”.

Question: What about the Solubility in methanol [2] of the same molecule?
Answer: The Solubility in methanol was “slightly soluble”.

Question: What about the Solubility in water [2] of the same molecule?
Answer: The Solubility in water was “practically insoluble”.
